Assay [1] relates to KYSE-150 (human oesophagus carcinoma). The assay is described as follows: MTT cytotoxicity assay, KYSE-150. Type of assay: cell-based. The settings on record: for IC50: Homo sapiens, KYSE-150. The protocol:
(§1) Cytotoxic activities of all compounds are evaluated by MTT assay using KYSE-150 (human oesophagus carcinoma), MKN-45 (human gastric aednocarcinoma), DLD-1 (human colorectal carcinoma cell line), HepG2 (human hepatocellular carcinoma), MCF-7 (human breast adenocarcinoma), and MDA-MB-231 (human breast adenocarcinoma). Canthatidin is used as positive control.
(§2) Cells are seeded in a 96-well plate (4×10^3 cells/well) and allowed to attach overnight.
(§3) After the recovery, cells are treated with 1.56 μM, 3.125 μM, 6.25 μM, 12.5 μM, 25 μM, 50 μM of each of the compounds in culture medium for 48 hrs. […] Finally, the culture medium is removed and 200 μL of DMSO are added to each well to dissolve the purple formazan crystals.
For orientation: Tetrazolium assays rely on reduction of a dye to a coloured formazan, in cell work by metabolically active cells.

The test system of assay [2] is MDA-MB-231 (human breast adenocarcinoma). The assay is described as follows: MTT cytotoxicity assay, MDA-MB-231. In kind it is cell-based. Particulars: for IC50: Homo sapiens, MDA-MB-231. The protocol: as §1, §2, §3
Assay [3] concerns HepG2 (human hepatocellular carcinoma). The assay is described as follows: MTT cytotoxicity assay, HepG2. In kind it is cell-based. The settings on record: 48 hrs treatment. The protocol:
as §1, §2, §3

Assay [4] concerns DLD-1 (human colorectal carcinoma cell line). The assay is described as follows: MTT cytotoxicity assay, DLD-1. Type of assay: cell-based. The settings on record: for IC50: Homo sapiens, DLD-1. The protocol:
as §1, §2, §3

Assay [5] concerns MKN-45 (human gastric aednocarcinoma). The experiment in a line: MTT cytotoxicity assay, MKN-45. The settings on record: 48 hrs treatment. Type of assay: cell-based. On the procedure: as §1, §2, §3
Assay [6] concerns MCF-7 (human breast adenocarcinoma). The assay is described as follows: MTT cytotoxicity assay, MCF-7. In kind it is cell-based. Particulars: for IC50: Homo sapiens, MCF7. On the procedure: as §1, §2, §3
Assay [7] concerns KYSE-150 cells. The experiment in a line: Wound healing assay. In kind it is cell-based, human. The settings on record: for Cell migration into the wound: KYSE-150 monolayer, 72 h, 1 and 2.5 μM/mL; for Viability of KYSE-150 cells as compared to controls: highest concentration of 1 μM/mL and 2.5 μM/mL. The protocol: In addition, wound healing assay is used to test whether the compounds 1, 2 and 3 could affect cell motility.
A wound healing assay is performed as follows: KYESE-150 cells are seeded in each well of the 12-well plate at 50% confluence in completed medium. After 24 hrs seeding, the monolayer is wounded by scoring with a sterile plastic tip (1 mL), then washed several times with medium to remove cell debris and then incubated in conditioned medium in the absence or presence of the tested compounds for various periods of time up to 72 h. […] Cell migration into the wound surface is monitored by Olympus IX71 microscopy and digitally photographed.

Where [8] appears, read: MTT, 48 hrs treatment, read-out: Cytotoxicity IC50, KYSE-150.
Where [9] appears, read: MTT, 48 hrs treatment, read-out: Cytotoxicity IC50, MDA-MB-231.
Setting [10] is: MTT, 48 hrs treatment, read-out: Cytotoxicity IC50, DLD-1.
Setting [11] is: MTT, 48 hrs treatment, read-out: Cytotoxicity IC50, MCF-7.

Structures are written as SMILES. Where two headings read alike, the source gives them in different places.

Take `C[C@@]12C(=O)OC(=O)[C@]1(C)[C@H]1CC[C@@H]2O1` [Cantharidin, reference compound]: the IC50 (commonly the concentration that gives 50% inhibition) in assay [1] (setting [8]) is 3.1 µM; in assay [2] (setting [9]) it was 4.69 µM; in assay [3] it was 3.1 µM; in assay [4] (setting [10]), 13.9 µM; in assay [5], 4.52 µM; in assay [6] (setting [11]), 13 µM.

On to `COC(=O)C1=C(C(=O)OC)C2OC1CC2C#Cc1ccc(OC)cc1` (centres unmarked) [Compound 1], for which the IC50 in assay [1] (setting [8]) was 1.82 µM; in assay [1] (summary statement in conclusion, read-out: IC50 of cell growth inhibition, KYSE-150), less than 10 µM; in assay [2] (setting [9]), 2.3 µM; in assay [2] (summary statement in conclusion, read-out: IC50 of cell growth inhibition, MDA-MB-231), less than 10 µM; in assay [3] it was 6.2 µM; in assay [4] (setting [10]), 6 µM. Besides, the IC50 was less than 10 µM in assay [4] (summary statement in conclusion, read-out: IC50 of cell growth inhibition, DLD-1); 21.3 µM in assay [5]; 2.46 µM in assay [6] (setting [11]); less than 10 µM in assay [6] (summary statement in conclusion, read-out: IC50 of cell growth inhibition, MCF-7). Moreover, the “Cell migration into the wound” value in assay [7] was “do not migrate into the wound”. For the same molecule, the “Viability of KYSE-150 cells as compared to controls” value (“Viability … compared to controls” below) in assay [7] is listed as “do not alter the viability”.

Consider `CCOC(=O)C1=C(C(=O)OCC)C2OC1CC2C#Cc1ccc(OC)cc1` (centres unmarked) [Compound 2], for which the IC50 in assay [1] (setting [8]) came out at 1.4 µM; in assay [2] (setting [9]), 2.81 µM; in assay [3], 15.7 µM; in assay [4] (setting [10]) it was 1.74 µM; in assay [5] it was 26 µM; in assay [6] (setting [11]), 6.39 µM. For the same molecule, the “Growth inhibition of KYSE-150 cells as compared to positive control” value in assay [1] (compared with canthatidin) is on record as “growth-inhibiting effects”. In addition, in assay [2] (compared with canthatidin), the “Growth inhibition of MDA-MB-231 cells as compared to positive control” value was “growth-inhibiting effects”. Moreover, in assay [7], the “Cell migration into the wound” value is “do not migrate into the wound”. In addition, the “Viability … compared to controls” value in assay [7] was “do not alter the viability”. The “Growth inhibition of MCF-7 cells as compared to positive control” value in assay [6] (compared with canthatidin) is “growth-inhibiting effects”.

For the molecule `COc1ccc(C#CC2CC3OC2C(C(=O)OC(C)(C)C)=C3C(=O)OC(C)(C)C)cc1` (centres unmarked) [Compound 3], the IC50 in assay [1] (setting [8]) worked out at 5.4 µM; in assay [2] (setting [9]), 50.2 µM; in assay [3], 8.4 µM; in assay [4] (setting [10]), 3.77 µM; in assay [5], 6.31 µM; in assay [6] (setting [11]), 33.4 µM. Besides, in assay [4] (compared with canthatidin), the “Growth inhibition of DLD-1 cells as compared to positive control” value was “growth-inhibiting effects”. Also, the “Cell migration into the wound” value in assay [7] is reported as “do not migrate into the wound”. Also, the “Viability … compared to controls” value in assay [7] was “do not alter the viability”.

The values are drawn from patent US9120816B2, “Oxanorbornadiene derivatives and their anticancer activities” (priority 2012, dated 2015).
